# Where two headings read alike, the source gives them in different places.
# Assays:
# Type in all cases: cell-based, human
# [1] = system: SN12C; experiment: NCI one-dose SRB assay (Renal Cancer)
# Experimental: (§1) The structures of all the newly prepared pyridine-ureas 8a–n were submitted to the National Cancer Institute (NCI) Developmental Therapeutic Program. Eight compounds 8b, 8d, 8e, 8i, 8j and 8l–n were selected to be examined for their in vitro growth inhibitory activity. The anticancer assays were carried out according to the protocol of the Drug Evaluation Branch, NCI, Bethesda. The selected pyridine-ureas were tested at one dose primary anticancer assay against a panel of approximately 58 cancer lines (concentration 10^−5 M). The tested human cancer cell lines emerged from nine different cancer subtypes: leukemia, colon, melanoma, ovarian, lung, CNS, renal, breast and prostate cancers. The sulforhodamine B (SRB) protein assay was adopted to estimate the cell viability and growth. The results were reported as mean-graph of the percentage growth of the treated cells, and presented as percentage growth inhibition (GI%) caused by the test compounds (Table 2).
# (§2) The anticancer assays were performed in accordance with the protocol of the Drug Evaluation Branch, NCI, Bethesda. A 48 h drug exposure protocol was used and sulforhodamine B (SRB) protein assay was applied to estimate the cell viability and growth, as reported earlier.
# [2] = system: UO-31; experiment: NCI one-dose SRB assay (Renal Cancer)
# Experimental: as §1, §2
# [3] = system: A498; experiment: NCI one-dose SRB assay (Renal Cancer)
# Experimental: as §1, §2
# [4] = system: RXF 393; experiment: NCI one-dose SRB assay (Renal Cancer)
# Experimental: as §1, §2
# [5] = system: TK-10; experiment: NCI one-dose SRB assay (Renal Cancer)
# Experimental: as §1, §2
# [6] = system: 786-0; experiment: NCI one-dose SRB assay (Renal Cancer)
# Experimental: as §1, §2
# [7] = system: breast cancer MCF-7 cell line; experiment: In vitro anti-proliferative activity, MTT assay; conditions: Homo sapiens, MCF-7, MTT
# Experimental: The in vitro anti-proliferative activity of the newly prepared pyridine-ureas 8a–n was examined against breast cancer MCF-7 cell line. The assay was carried out, as triplicates, utilizing the 3-(4,5-dimethylthiazol-2-yl)-2,5-diphenyltetrazolium bromide (MTT) colorimetric assay as described by T. Mosmann. Doxorubicin and Sorafenib were included in this assay as a reference drug.
# MCF-7 (human breast cancer cell line) and WI-38 (human lung fibroblast cell line), were obtained from American Type Culture Collection (Manassas, VA, USA). The cells were propagated in DMEM and supplemented with 10% heat-inactivated FBS (Hyclone), 10 μg/mL of insulin (Manufacturer, Sigma, St. Louis, MO, USA), and 1% penicillin-streptomycin. MTT assay was utilized to examine the in vitro anti-proliferative activity of the newly prepared ureas following the reported procedures. […] The data presented are the mean of at least three separate experiments.
# [8] = system: HCT-15; experiment: NCI one-dose SRB assay (Colon Cancer)
# Experimental: as §1, §2
# [9] = system: COLO 205; experiment: NCI one-dose SRB assay (Colon Cancer)
# Experimental: as §1, §2
# [10] = system: HCC-2998; experiment: NCI one-dose SRB assay (Colon Cancer)
# Experimental: as §1, §2
# [11] = system: SW-620; experiment: NCI one-dose SRB assay (Colon Cancer)
# Experimental: as §1, §2
# [12] = system: HT29; experiment: NCI one-dose SRB assay (Colon Cancer)
# Experimental: as §1, §2
# [13] = system: KM12; experiment: NCI one-dose SRB assay (Colon Cancer)
# Experimental: as §1, §2
# [14] = system: HCT-116; experiment: NCI one-dose SRB assay (Colon Cancer)
# Experimental: as §1, §2
# [15] = system: LOX IMVI; experiment: NCI one-dose SRB assay (Melanoma)
# Experimental: as §1, §2
# [16] = system: MALME-3M; experiment: NCI one-dose SRB assay (Melanoma)
# Experimental: as §1, §2
# [17] = system: UACC-62; experiment: NCI one-dose SRB assay (Melanoma)
# Experimental: as §1, §2
# [18] = system: SK-MEL-5; experiment: NCI one-dose SRB assay (Melanoma)
# Experimental: as §1, §2
# [19] = system: UACC-257; experiment: NCI one-dose SRB assay (Melanoma)
# Experimental: as §1, §2
# [20] = system: M14; experiment: NCI one-dose SRB assay (Melanoma)
# Experimental: as §1, §2
# [21] = system: MDA-MB-435; experiment: NCI one-dose SRB assay (Melanoma)
# Experimental: as §1, §2
# [22] = system: SK-MEL-2; experiment: NCI one-dose SRB assay (Melanoma)
# Experimental: as §1, §2
# [23] = system: SK-MEL-28; experiment: NCI one-dose SRB assay (Melanoma)
# Experimental: as §1, §2
# [24] = Homo sapiens, 10 μM, read-out: Percentage growth inhibition (GI%)
compound,measurement,setting,value
"COc1ccc(-c2ccc(NC(=O)Nc3ccc(Cl)c(C(F)(F)F)c3)c(C)n2)cc1 [Compound 8e, 1-(4-Chloro-3-(trifluoromethyl)phenyl)-3-(6-(4-methoxyphenyl)-2-methylpyridin-3-yl)urea]",Growth Percent,[1]; 1.00E-5 Molar,57.41%
same,inhibition at 10 µM,[1]; [24],43%
same,inhibition at 10 µM,"[2]; Homo sapiens, UO-31, 10 μM, read-out: Percentage growth inhibition (GI%)",61%
same,Growth Percent,"[2]; UO-31, 1.00E-5 Molar",39.33%
same,Growth Percent,"[3]; A498, 1.00E-5 Molar",57.74%
same,inhibition at 10 µM,"[3]; Homo sapiens, A498, 10 μM, read-out: Percentage growth inhibition (GI%)",43%
same,inhibition at 10 µM,"[4]; Homo sapiens, RXF 393, 10 μM, read-out: Percentage growth inhibition (GI%)",19%
same,Growth Percent,"[4]; RXF 393, 1.00E-5 Molar",81.37%
same,inhibition at 10 µM,"[5]; Homo sapiens, TK-10, 10 μM, read-out: Percentage growth inhibition (GI%)",35%
same,Growth Percent,"[5]; TK-10, 1.00E-5 Molar",65.92%
same,Growth Percent,"[6]; 786-0, 1.00E-5 Molar",56.08%
same,inhibition at 10 µM,"[6]; Homo sapiens, 786-0, 10 μM, read-out: Percentage growth inhibition (GI%)",44%
same,IC50,"[7]; MCF7, 48 h, 48 h of incubation, read-out: IC50 48 h",0.22 ± 0.02 µM
same,IC50,"[7]; MCF7, 72 h, 72 h of incubation, read-out: IC50 72 h",0.11 ± 0.1 µM
same,Growth Percent,"[8]; HCT-15, 1.00E-5 Molar",37.80%
same,inhibition at 10 µM,"[8]; Homo sapiens, HCT-15, 10 μM, read-out: Percentage growth inhibition (GI%)",63%
same,Growth Percent,"[9]; COLO 205, 1.00E-5 Molar",80.09%
same,inhibition at 10 µM,"[9]; Homo sapiens, COLO 205, 10 μM, read-out: Percentage growth inhibition (GI%)",20%
same,Growth Percent,"[10]; HCC-2998, 1.00E-5 Molar",69.17%
same,inhibition at 10 µM,"[10]; Homo sapiens, HCC-2998, 10 μM, read-out: Percentage growth inhibition (GI%)",31%
same,inhibition at 10 µM,"[11]; Homo sapiens, SW-620, 10 μM, read-out: Percentage growth inhibition (GI%)",33%
same,Growth Percent,"[11]; SW-620, 1.00E-5 Molar",67.04%
same,Growth Percent,"[12]; HT29, 1.00E-5 Molar",46.44%
same,inhibition at 10 µM,"[12]; Homo sapiens, HT-29, HT29, 10 μM, read-out: Percentage growth inhibition (GI%)",54%
same,inhibition at 10 µM,"[13]; Homo sapiens, KM12, 10 μM, read-out: Percentage growth inhibition (GI%)",63%
same,Growth Percent,"[13]; KM12, 1.00E-5 Molar",37.36%
same,Growth Percent,"[14]; HCT-116, 1.00E-5 Molar",23.73%
same,inhibition at 10 µM,"[14]; Homo sapiens, HCT-116, 10 μM, read-out: Percentage growth inhibition (GI%)",77%
same,Growth Percent,[15]; 1.00E-5 Molar,64.51%
same,inhibition at 10 µM,[15]; [24],36%
same,Growth Percent,[16]; 1.00E-5 Molar,82.56%
same,inhibition at 10 µM,[16]; [24],18%
same,inhibition at 10 µM,"[17]; Homo sapiens, UACC-62, 10 μM, read-out: Percentage growth inhibition (GI%)",35%
same,Growth Percent,"[17]; UACC-62, 1.00E-5 Molar",65.57%
same,inhibition at 10 µM,"[18]; Homo sapiens, SK-MEL-5, 10 μM, read-out: Percentage growth inhibition (GI%)",45%
same,Growth Percent,"[18]; SK-MEL-5, 1.00E-5 Molar",55.66%
same,inhibition at 10 µM,"[19]; Homo sapiens, UACC-257, 10 μM, read-out: Percentage growth inhibition (GI%)",43%
same,Growth Percent,"[19]; UACC-257, 1.00E-5 Molar",57.07%
same,inhibition at 10 µM,"[20]; Homo sapiens, M14, 10 μM, read-out: Percentage growth inhibition (GI%)",69%
same,Growth Percent,"[20]; M14, 1.00E-5 Molar",31.87%
same,inhibition at 10 µM,"[21]; Homo sapiens, MDA-MB-435, 10 μM, read-out: Percentage growth inhibition (GI%)",29%
same,Growth Percent,"[21]; MDA-MB-435, 1.00E-5 Molar",71.95%
same,inhibition at 10 µM,"[22]; Homo sapiens, SK-MEL-2, 10 μM, read-out: Percentage growth inhibition (GI%)",38%
same,Growth Percent,"[22]; SK-MEL-2, 1.00E-5 Molar",62.13%
same,inhibition at 10 µM,"[23]; Homo sapiens, SK-MEL-28, 10 μM, read-out: Percentage growth inhibition (GI%)",29%
same,Growth Percent,"[23]; SK-MEL-28, 1.00E-5 Molar",71.43%
